Measured values reported in patent US20030108556A1 (priority 2001, published 2003).
Entries after “also recorded” stand apart in the source; their conditions may differ. Ends that are not written are not given here.

Key:
PA63 heptamer [1] = molecular target: T1, PA63 heptamer (Bacillus anthracis, UniProt P13423)
PA63 heptamer [2] = molecular target: T1, PA63 heptamer; assay: biochemical; assay type: binding

T1 sequence (P13423 197-764 limits assumed): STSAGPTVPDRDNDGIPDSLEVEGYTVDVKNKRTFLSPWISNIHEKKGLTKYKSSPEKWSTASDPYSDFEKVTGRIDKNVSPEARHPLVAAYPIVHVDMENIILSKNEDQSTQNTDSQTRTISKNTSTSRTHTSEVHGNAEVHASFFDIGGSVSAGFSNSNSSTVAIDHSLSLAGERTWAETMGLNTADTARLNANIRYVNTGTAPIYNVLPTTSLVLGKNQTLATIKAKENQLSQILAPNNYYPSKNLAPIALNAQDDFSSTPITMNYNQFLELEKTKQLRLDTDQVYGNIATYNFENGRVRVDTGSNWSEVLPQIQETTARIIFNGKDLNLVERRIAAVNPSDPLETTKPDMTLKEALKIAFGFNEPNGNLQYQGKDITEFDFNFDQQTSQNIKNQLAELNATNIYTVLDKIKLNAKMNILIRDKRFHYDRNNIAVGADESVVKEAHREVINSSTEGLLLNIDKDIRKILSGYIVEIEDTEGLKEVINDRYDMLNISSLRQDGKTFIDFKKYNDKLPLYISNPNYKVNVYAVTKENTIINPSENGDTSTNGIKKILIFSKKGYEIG

Row | Substance | properties of phage compared with P1 and P2 (PA63 heptamer [1]) | effect on binding of radiolabeled LFN to PA63 on CHO cells (PA63 heptamer [2]) | further results
1 | CWSSFAWYC | showed the same properties as P1 and P2 |  | 
2 | FDLPFTMSTPTP [reference compound] |  | no effect | 
3 | HTSTYWWLD |  | all but one, HTSTYWWLD, could prevent; also recorded: could not compete | 
4 | HTSTYWWLDGAP |  |  | IC50 (PA63 heptamer [2]): ~150 µM
5 | HYTYWWL | showed the same properties as P1 and P2 |  | 
